Experimental data from patent US12559474B2, “Triazine derivatives having virus replication inhibitory activity and pharmaceutical composition comprising the same” (priority 2021, dated 2026).
Read-outs that look alike come from different tables or passages of the source.

Columns and labels:
SARS-CoV-2 = assay: microbe, parasite or virus in culture; format: cell-based; conditions: Severe acute respiratory syndrome coronavirus 2, VeroE6/TMPRSS2, 72 h, 50% SARS-CoV-2 infected cell death inhibitory concentration, VeroE6/TMPRSS2 cells, 3 days culture
SARS-CoV-2 3CL protease = SARS-CoV-2 3CL protease (Severe acute respiratory syndrome coronavirus 2, UniProt P0DTD1); assay: biochemical; conditions: 50% SARS-CoV-2 3CL protease inhibitory concentration, read-out: IC50

SMILES	EC50 (SARS-CoV-2; class symbols) [nM]	IC50 (SARS-CoV-2 3CL protease; given as class symbols) [nM]	EC50 (SARS-CoV-2; CellTiter-Glo 2.0) [nM]	IC50 (SARS-CoV-2 3CL protease; RapidFire MS) [nM]
Cc1nc(Cn2cc3cc(Nc4nc(=O)n(Cc5ccc[nH]c5=O)c(=O)n4Cc4cc(F)c(F)c(F)c4)c(Cl)cc3n2)no1 [II-0344]	1000 to 10000	< 100		
Cc1cncc(-n2c(=O)nc(Nc3cc4cn(CC5CC5)nc4cc3Cl)n(Cc3ccc(F)c(C#N)c3)c2=O)c1 [II-0345]	< 1000	< 100		
CNc1nc2cc(Cl)c(Nc3nc(=O)n(-c4cncc(C)c4)c(=O)n3Cc3cc(C#N)c(F)cc3C)cc2o1 [II-0346]	< 1000	< 100		
Cc1ccc(C#N)cc1Cn1c(Nc2ccc3nn(C)cc3c2)nc(=O)n(-c2cncc(Cl)c2)c1=O [II-0347]			190	7
Cc1cc(Cn2cc3cc(Nc4nc(=O)n(Cc5ccc[nH]c5=O)c(=O)n4Cc4cc(F)c(F)c(F)c4)c(Cl)cc3n2)no1 [II-0348]	1000 to 10000	< 100		
O=c1nc(Nc2cc3c(cc2Cl)nc2n3CCN2)n(Cc2cc(Cl)c(F)cc2F)c(=O)n1-c1cncc(Cl)c1 [II-0349]	1000 to 10000	< 100		
Cc1cncc(-n2c(=O)nc(Nc3cc4c(cc3Cl)nc(C)n4C)n(Cc3ccc(F)c(C#N)c3)c2=O)c1 [II-0350]	1000 to 10000	< 100		
Cc1cncc(-n2c(=O)nc(Nc3cc4cn(CCN5CCOCC5)nc4cc3Cl)n(Cc3cc(F)c(F)c(F)c3)c2=O)c1 [II-0351]	< 1000	< 100		
Cn1cnc(Cn2c(=O)nc(Nc3cc4cn(CC5CC5)nc4cc3Cl)n(Cc3cc(F)c(F)cc3F)c2=O)n1 [II-0352]	< 1000	< 100		
Cc1cncc(-n2c(=O)nc(Nc3cc4c(cc3F)nc(C)n4C)n(Cc3ccc(F)c(C#N)c3)c2=O)c1 [II-0353]	1000 to 10000	< 100		
Cc1cncc(-n2c(=O)nc(Nc3ccc4nc(C)n(C)c4c3)n(Cc3ccc(F)c(C#N)c3)c2=O)c1 [II-0354]	1000 to 10000	< 100		
Cc1cncc(-n2c(=O)nc(Nc3cc4cn(CC(F)F)nc4cc3F)n(Cc3cc(F)c(F)cc3F)c2=O)c1 [II-0355]	< 1000	< 100		
Cc1cncc(-n2c(=O)nc(Nc3cc4c(cc3Cl)nc(C)n4C)n(Cc3cc(F)c(F)c(F)c3)c2=O)c1 [II-0356]	1000 to 10000	< 100		
Cn1cnc(Cn2c(=O)nc(Nc3cc4cn(CC(F)F)nc4cc3F)n(Cc3cc(F)c(F)cc3F)c2=O)n1 [II-0359]	1000 to 10000	< 100		
Cc1cncc(-n2c(=O)nc(Nc3cc4c(cc3F)nc(C)n4C)n(Cc3cc(F)c(F)c(F)c3)c2=O)c1 [II-0360]	1000 to 10000	< 100		
Cn1cnc(Cn2c(=O)nc(Nc3cc4cn(C)nc4cc3Cl)n(Cc3cc(Cl)ccc3F)c2=O)n1 [II-0361]	< 1000	< 100		
Cc1cncc(-n2c(=O)nc(Nc3cc4cn(C)nc4cc3Cl)n(Cc3cc(Cl)ccc3F)c2=O)c1 [II-0362]	< 1000	< 100		
Cn1cnc(Cn2c(=O)nc(Nc3cc4cn(C)nc4cc3Cl)n(Cc3cc(Cl)c(F)cc3Cl)c2=O)n1 [II-0363]	< 1000	< 100		
Cc1cncc(-n2c(=O)nc(Nc3cc4cn(C)nc4cc3F)n(Cc3cc(C#N)ccc3Cl)c2=O)c1 [II-0364]	< 1000	< 100		
Cc1cc(F)c(C#N)cc1Cn1c(Nc2cc3cn(C)nc3cc2F)nc(=O)n(-c2cncc(Cl)c2)c1=O [II-0365]	< 1000	< 100		
Cc1cncc(-n2c(=O)nc(Nc3cc4cn(C5CC5)nc4cc3Cl)n(Cc3ccc(F)c(C#N)c3)c2=O)c1 [II-0366]	< 1000	< 100		
Cn1cc2cc(Nc3nc(=O)n(-c4cncc(Cl)c4)c(=O)n3Cc3cc(F)c(F)c(C#N)c3)c(F)cc2n1 [II-0367]	< 1000	< 100		

SMILES	EC50 (SARS-CoV-2; class symbols) [nM]	IC50 (SARS-CoV-2 3CL protease; given as class symbols) [nM]	EC50 (SARS-CoV-2; CellTiter-Glo 2.0) [nM]	IC50 (SARS-CoV-2 3CL protease; RapidFire MS) [nM]
Cc1cncc(-n2c(=O)nc(Nc3cc4c(C#N)n(C)nc4cc3Cl)n(Cc3ccc(F)c(C#N)c3)c2=O)c1 [II-0368]	1000 to 10000	< 100		
Cc1cncc(-n2c(=O)nc(N3CC4CCC3CC4)n(Cc3cc(F)c(F)c(F)c3)c2=O)c1 [II-0369]			1160	630
CC[C@@H](Nc1nc(=O)n(Cc2ccc[nH]c2=O)c(=O)n1Cc1cc(F)c(F)c(F)c1)C(F)(F)F [II-0370]			28900	520
O=c1[nH]cccc1Cn1c(=O)nc(NCC2CCCC2)n(Cc2cc(F)c(F)c(F)c2)c1=O [II-0371]			13300	540
Cc1cncc(-n2c(=O)nc(N(C)C3CCCCC3)n(Cc3cc(F)c(F)c(F)c3)c2=O)c1 [II-0372]			6520	3400
Cc1cncc(-n2c(=O)nc(N3CC4CCC3CO4)n(Cc3cc(F)c(F)c(F)c3)c2=O)c1 (stereo not shown) [II-0375]			21600	3800
Cc1cncc(-n2c(=O)nc(N3CC4(CCOC4)C3)n(Cc3cc(F)c(F)c(F)c3)c2=O)c1 [II-0376]			7130	1000
Cc1cncc(-n2c(=O)nc(Nc3cc4cn(C)nc4cc3Cl)n(Cc3cc(Cl)c(F)cc3F)c2=O)c1 [II-0377]			49	3
Cc1cncc(-n2c(=O)nc(Nc3cc4cn(C)nc4cc3Cl)n(Cc3ccc(F)c(C#N)c3)c2=O)c1 [II-0378]	1000 to 10000	< 100		
Cc1cc(F)c(C#N)cc1Cn1c(Nc2cc3cn(C)nc3cc2Cl)nc(=O)n(-c2cncc(N)c2)c1=O [II-0380]	1000 to 10000	< 100		
Cn1cc2cc(Nc3nc(=O)n(-c4cncc(N)c4)c(=O)n3Cc3cc(Cl)c(F)cc3F)c(Cl)cc2n1 [II-0381]	< 1000	< 100		
CNc1nc2cc(Cl)c(Nc3nc(=O)n(-c4cncc(C)c4)c(=O)n3Cc3ccc(F)c(C#N)c3)cc2s1 [II-0382]	< 1000	< 100		
CNc1nc2ccc(Nc3nc(=O)n(-c4cncc(Cl)c4)c(=O)n3Cc3cc(C#N)ccc3C)cc2s1 [II-0383]	< 1000	< 100		
Cn1cc2cc(Nc3nc(=O)n(-c4cncc(N)c4)c(=O)n3Cc3cc(F)c(F)c(Cl)c3)c(Cl)cc2n1 [II-0384]	1000 to 10000	< 100		
CNc1nc2cc(F)c(Nc3nc(=O)n(-c4cncc(C)c4)c(=O)n3Cc3cc(Cl)c(F)cc3F)cc2s1 [II-0385]	< 1000	< 100		
Cn1cc2cc(Nc3nc(=O)n(-c4cncc(N)c4)c(=O)n3Cc3cc(F)c(F)cc3F)c(Cl)cc2n1 [II-0386]	1000 to 10000	< 100		
CNc1nc2ccc(Nc3nc(=O)n(-c4cncc(Cl)c4)c(=O)n3Cc3cc(F)c(F)c(C#N)c3)cc2s1 [II-0387]	< 1000	< 100		
Cn1cc2cc(Nc3nc(=O)n(-c4cncc(C5CC5)c4)c(=O)n3Cc3ccc(F)c(C#N)c3)ccc2n1 [II-0388]	< 1000	< 100		
Cn1cc2cc(Nc3nc(=O)n(-c4cncc(C#N)c4)c(=O)n3Cc3ccc(F)c(C#N)c3)ccc2n1 [II-0389]			4400	45
CCc1cncc(-n2c(=O)nc(Nc3ccc4nn(C)cc4c3)n(Cc3ccc(F)c(C#N)c3)c2=O)c1 [II-0390]	1000 to 10000	< 100		
Cn1cc2cc(Nc3nc(=O)n(-c4cnc5ccccn45)c(=O)n3Cc3cc(F)c(F)c(F)c3)c(Cl)cc2n1 [II-0391]	1000 to 10000	< 100		
COc1ccc(Nc2nc(=O)n(-c3cc(C)cnn3)c(=O)n2Cc2cc(F)c(F)c(F)c2)cc1 [II-0392]			20800	1000
